# Data from ChEMBL document CHEMBL1212796, “Ineffectiveness of tigecycline against persistent Borrelia burgdorferi” (2010).
# The source made the active and inactive calls. The calls are words filed in the database; no cut-off is given here.
# Assays:
# [1] = system: Borrelia burgdorferi; experiment: Antimicrobial activity against Borrelia burgdorferi N40; assay type: functional; conditions: Borreliella burgdorferi
# [2] = system: Borrelia burgdorferi; experiment: Antimicrobial activity against Borrelia burgdorferi B31; assay type: functional; conditions: Borreliella burgdorferi
# [3] = Reduction in ospA gene expression in heart base tissue of SCID mouse transplanted with tibiotarsal and heart base tissue from Borrelia burgdorferi infected 12.5 mg/kg treated mouse; assay type: functional, organism-based; parameters: dose 12.5 mg/kg; conditions: Borreliella burgdorferi, at 12.5 mg/kg
# [4] = Reduction in beta-actin gene expression in heart base tissue Borrelia burgdorferi infected mouse at 50 mg/kg; assay type: functional, organism-based; parameters: dose 50 mg/kg; conditions: Borreliella burgdorferi
# [5] = Reduction in ospA gene expression assessed as gene copies in per mg of SCID mouse ventricular/quadriceps tissue receiving Borrelia burgdorferi infected nymphal ticks from 50 mg/kg treated mouse; assay type: functional, organism-based; parameters: dose 50 mg/kg; conditions: Borreliella burgdorferi; Cardiac ventricle; at 50 mg/kg
# [6] = Reduction in flaB gene expression in heart base tissue Borrelia burgdorferi infected mouse at 50 mg/kg; assay type: functional, organism-based; parameters: dose 50 mg/kg; conditions: Borreliella burgdorferi
# [7] = Reduction in flaB gene expression in heart base tissue Borrelia burgdorferi infected mouse at 12.5 mg/kg; assay type: functional, organism-based; parameters: dose 12.5 mg/kg; conditions: Borreliella burgdorferi
# [8] = Reduction in arp gene expression in heart base tissue Borrelia burgdorferi infected mouse at 50 mg/kg; assay type: functional, organism-based; parameters: dose 50 mg/kg; conditions: Borreliella burgdorferi
# [9] = Reduction in arp gene expression in heart base tissue Borrelia burgdorferi infected mouse at 12.5 mg/kg; assay type: functional, organism-based; parameters: dose 12.5 mg/kg; conditions: Borreliella burgdorferi
# [10] = Reduction in ospA gene expression in heart base tissue Borrelia burgdorferi infected mouse at 50 mg/kg; assay type: functional, organism-based; parameters: dose 50 mg/kg; conditions: Borreliella burgdorferi
# [11] = Reduction in dbpA gene expression in heart base tissue Borrelia burgdorferi infected mouse at 50 mg/kg; assay type: functional, organism-based; parameters: dose 50 mg/kg; conditions: Borreliella burgdorferi
# [12] = Reduction in ospA gene expression in heart base tissue of SCID mouse transplanted with tibiotarsal and heart base tissue from Borrelia burgdorferi infected 50 mg/kg treated mouse; assay type: functional, organism-based; parameters: dose 50 mg/kg; conditions: Borreliella burgdorferi, at 50 mg/kg
# [13] = Reduction in oppA-2 gene expression in heart base tissue Borrelia burgdorferi infected mouse at 50 mg/kg; assay type: functional, organism-based; parameters: dose 50 mg/kg; conditions: Borreliella burgdorferi
# [14] = Reduction in beta-Actin gene expression in heart base tissue Borrelia burgdorferi infected mouse at 12.5 mg/kg; assay type: functional, organism-based; parameters: dose 12.5 mg/kg; conditions: Borreliella burgdorferi
SMILES,MIC [1] [µg/mL],MIC [2] [µg/mL],inhibition [3],inhibition [4],inhibition [5],inhibition [6],inhibition [7],inhibition [8],inhibition [9],inhibition [10],inhibition [11],inhibition [12],inhibition [13],inhibition [14]
CO/N=C(\C(=O)N[C@@H]1C(=O)N2C(C(=O)O)=C(CSc3nc(=O)c(O)nn3C)CS[C@H]12)c1csc(N)n1 [CEFTRIAXONE],0.048,0.012,Active,,,,,,,,,,,
C[C@H]1c2cccc(O)c2C(=O)C2=C(O)[C@]3(O)C(=O)C(C(N)=O)=C(O)[C@@H](N(C)C)[C@@H]3[C@@H](O)[C@@H]21.O [DOXYCYCLINE],0.78,0.39,,,,,,,,,,,,
CC1(C)S[C@@H]2[C@H](NC(=O)Cc3ccccc3)C(=O)N2[C@H]1C(=O)O [PENICILLIN G],0.024,0.024,,,,,,,,,,,,
CN(C)c1cc(NC(=O)CNC(C)(C)C)c(O)c2c1C[C@H]1C[C@H]3[C@H](N(C)C)C(O)=C(C(N)=O)C(=O)[C@@]3(O)C(O)=C1C2=O [TIGECYCLINE],0.006,0.006,,inactive,Active,Active,Active,Active,Active,Active,Active,Active,inactive,inactive
